Earlier results in US10245278B2 (priority 2013, dated 2019).
Read-outs that look alike come from different tables or passages of the source.

How the values were obtained:
[1] = intermittent claudication; oral 8 grams twice per day for 3 weeks
[2] = menopausal women; oral 14 grams per day for 6 months
[3] = angina pectoris or congestive heart failure; oral, at least 6 grams per day for 6 weeks
[4] = even at doses of 9 or 10 grams twice per day
[5] = slightly hypertensive persons; oral 12 grams per day in three administrations for 4 weeks
[6] = male subjects; 8 grams in a single administration one or two hours before relations
[7] = heart transplant patients; 6 grams per day for several weeks

| Molecule | walking range [1] | muscular force [2] | ability to withstand physical effort [3] | side effects [4] | arterial pressure [5] | moderate sexual dysfunction [6] | ability to withstand physical effort [7] |
| --- | --- | --- | --- | --- | --- | --- | --- |
| N=C(N)NCCC[C@H](N)C(=O)O [arginine, L-arginine] | enabled their walking range to be increased | resulted in increasing muscular force | improves the ability to withstand physical effort | very few side effects | reduced the arterial pressure significantly | – | – |
| L-arginine aspartate | – | – | – | – | – | significantly improved their disorder | same result |
